Publication PMC2752665 (Nature chemical biology, 2009)

Assays:
KSHV Pr [1] = target: T1, KSHV Pr (Human herpesvirus 8 type P, UniProt Q2HRB6, S204G); test: Inhibition kinetics; assay type: biochemical, human Kaposi's sarcoma-associated herpesvirus (KSHV)
[2] = Dynamic light scattering for particle formation; assay type: physicochemical
KSHV Pr dimer = KSHV Pr dimer (Human herpesvirus 8 type P, UniProt Q2HRB6, S204G); assay type: binding
wt KSHV Pr = wt KSHV Pr (Human herpesvirus 8 type P, UniProt Q2HRB6, S204G); assay type: binding; conditions: 23 μM 13C-Met wt KSHV Pr, 1 molar equivalence inhibitor (24 μM)
KSHV Pr [3] = target: T1, KSHV Pr; assay type: biochemical, human Kaposi's sarcoma-associated herpesvirus (KSHV); conditions: substitution from meta position to para or ortho
p53-MDM2 = conditions: cited from earlier work
[4] = 1 -10 μM concentration range of DD2

SMILES: O=C(O)c1ccc(NC(=O)c2cccc(CC3CCCCC3)n2)c(Cc2ccccc2)c1 [Compound 2]
- decrease in Vmax (KSHV Pr [1]; [4]): 3 fold
- increase in KM (KSHV Pr [1]; [4]): 2.5 fold
- type of inhibition (KSHV Pr [1]; Lineweaver–Burk analysis): mixed-type inhibitor
- particle formation by dynamic light scattering [2]: did not show evidence of particle formation
- elution profile of KSHV Pr (dimerization state) (KSHV Pr dimer; 5 μM wt KSHV Pr pre-incubated with 30 μM compound): eluted predominantly as a monomer
- M197-dimer peak in 1H-13C HSQC (wt KSHV Pr): broadens beyond detection

SMILES: O=C(O)c1ccc(NC(=O)c2ccccc2CC2CCCCC2)c(Cc2ccccc2)c1 [Compound 5]
- effect of moving the cyclohexylmethyl side chain on inhibition (SAR) (KSHV Pr [3]): diminished inhibition

SMILES: O=C(O)c1ccc(NC(=O)c2ccc(CC3CCCCC3)cc2)c(Cc2ccccc2)c1 [Compound 4]
- effect of moving the cyclohexylmethyl side chain on inhibition (SAR) (KSHV Pr [3]): diminished inhibition

SMILES: O=C(O)c1ccc(NC(=O)c2cccc(CC3CCCCC3)c2)c(Cc2ccccc2)c1 [Compound 1]
- results in size exclusion chromatography and HSQC experiments compared with DD2 (KSHV Pr dimer; data not shown): produced similar results
- inhibition of the interaction of p53-MDM2 (p53-MDM2): not found to inhibit
